Results reported in US10912761B2, “Methods and compositions involving RAD51 inhibitors” (The University of Chicago, priority 2012, dated 2021).
Entries after “also recorded” stand apart in the source; their conditions may differ. Blank lines part the entries; values can stand above or below the compound they belong to.

Key:
[1] = Glutathione stability experiments (HPLC); format: physicochemical; conditions: L-glutathione 5 mol equiv, DMSO, 37° C., hourly HPLC; up to 24 hours
Description: FIG. 1. Reaction of RI-1, RI-2, and 9b with glutathione. Glutathione is a tripeptide that contains a nucleophilic sulfhydryl group. Glutathione may react irreversibly with a Michael acceptor compound containing a suitable leaving group at the 4-position.
Compound (10 mg) and L-glutathione (5 mol equiv) were placed in a round-bottomed flask under argon and dissolved in DMSO (1 mL). The reaction was heated to 37° C. and stirred. Aliquots of the reaction mixture were removed every hour, including one at t=0 min, and analyzed by HPLC. Ratio of substrate and glutathione adduct was recorded and the expected glutathione adduct was then identified using mass spectrometry

human RAD51 protein [2] = target: T1, human RAD51 protein (Homo sapiens, UniProt Q06609); test: DNA binding competition assay: bead-immobilized RAD51 treated with compound, washed, cleaved, tested by FP (reversible vs. irreversible inhibition); conditions: washed extensively, protein cleaved from beads (FIG. 2C)
T1 sequence (Q06609 1-339): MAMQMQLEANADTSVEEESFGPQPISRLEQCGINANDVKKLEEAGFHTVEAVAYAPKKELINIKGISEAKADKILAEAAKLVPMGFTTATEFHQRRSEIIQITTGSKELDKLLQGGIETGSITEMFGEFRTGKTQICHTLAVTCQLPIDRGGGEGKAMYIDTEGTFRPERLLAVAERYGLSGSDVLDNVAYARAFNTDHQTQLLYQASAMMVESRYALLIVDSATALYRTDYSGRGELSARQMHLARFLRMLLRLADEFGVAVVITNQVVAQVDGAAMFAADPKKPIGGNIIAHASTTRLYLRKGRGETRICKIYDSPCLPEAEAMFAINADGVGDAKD
Description: Reversible vs. irreversible inhibition of RAD51 by compound was tested by incubating compounds with RAD51 while still attached to beads and prior to washing. […] Reversible vs. irreversible inhibition of RAD51. Biotinylated RAD51 was immobilized on streptavidin polyacrylamide beads. The RAD51-coated beads were incubated with compound and subsequently washed extensively to remove any compound that was not covalently attached. The treated protein was subsequently cleaved from the beads and tested for DNA binding activity using our standard FP-based assay.
Tagged RAD51 was immobilized on streptavidin-conjugated polyacrylamide beads (Ultralink, Pierce) and incubated for 30 min at 37° C. with candidate compounds in 20 mM HEPES, pH 7.5, 30 mM NaCl, 2% glycerol, 4% DMSO. The polyacrylamide beads were then washed twice with ice-cold wash buffer (20 mM Tris-HCl, pH 8.0, 300 mM NaCl) containing 4% DMSO and then once with ice-cold wash buffer without DMSO. RAD51 protein was subsequently eluted from beads with TEV protease (gift from Phoebe Rice) and analyzed for DNA binding activity using the above FP-based DNA binding assay.

[3] = system: SSA in HEK293 cells (SA-GFP reporter); test: Quantification of SSA efficiency in SA-GFP reporter cells; format: cell-based, human; conditions: 24 hours
Description: (§1) FIG. 3. Relative DNA repair efficiencies. […] Reporter-containing HEK293 cells were electroporated with an I-SceI endonuclease-expressing plasmid, incubated with compounds as indicated for 24 hours, and subjected to FACS analysis 24 hours thereafter. […] The reporter construct that measures HR repair consists of two non-functional copies of green fluorescence protein (GFP), one of which is interrupted by an I-SceI endonuclease site. Induction of a DNA break at the I-SceI site can lead to repair by homologous gene conversion that generates a functional copy of GFP (Pierce et al., 1999). A second parallel assay makes use of cells that contain a different reporter that measures single-strand annealing (SSA), which is an alternative method of re-ligating DNA when HR cannot be completed. SSA efficiency is known to be elevated in situations where RAD51 function has been disrupted (Mansour et al., 2008, Stark et al., 2004, and Bennardo et al., 2008). […] HEK293 cells stably transfected with the DR-GFP or SA-GFP reporters were provided by Jeremy Stark (Bennardo et al., 2008). 0.5-1.0×10^7 cells at 80% confluence were electroporated with 30-60 μg pCβASce (or pCAGGS) in 4 mm cuvettes, using the following settings: 240-350 V, 975 μF. […] Compounds were removed and cells were incubated for an additional 24 hours in normal media, following which they were analyzed with a Becton-Dickinson FACScan. […]

[4] = system: HR repair in HEK293 cells (DR-GFP reporter); test: Quantification of HR efficiency in DR-GFP reporter cells; format: cell-based, human; conditions: 24 hours
Description: as §1

human RAD51 protein [5] = target: T1, human RAD51 protein; test: FP-based DNA binding assay (RAD51 binding to fluorescently labeled ssDNA); format: biochemical; set-up: made in house; conditions: for time dependence of inhibitory activity on the DNA binding activity of RAD51: compound added after the protein has been released from the beads (FIG. 2B)
Description: The synthesized compounds were tested for biological activity in a two-stage manner. They were first evaluated for their ability to inhibit the binding of human RAD51 protein to ssDNA. This primary assay utilizes a fluorescence polarization (FP) based method that involves incubation of purified RAD51 protein with oligonucleotides, which are end-labeled with a fluorescent tag. The binding of RAD51 to this substrate ssDNA is quantified as a function of polarization of light emitted by the fluorescent tag. Chemical analogs were then tested further using secondary cell-based assays. Since cell lethality from RI-1 is thought to be a function of cellular RAD51 inhibition for RI-1, LD50 values were used as a surrogate measurement of in vivo activity against RAD51 in cells. This cell-based assay was also simultaneously utilized to evaluate for compound-induced sensitization of cells to the cross-linking chemotherapeutic drug MMC, thereby confirming that toxic effects are secondary to HR inhibition.
Human RAD51 protein was prepared as previously described (Budke et al., 2012). RAD51 was incubated with 100 nM (nucleotide concentration) of a 45-mer oligo-dT 5′ Alexa 488 end-labeled substrate. Binding was measured as a function of fluorescence polarization (FP) of the Alexa 488 tag. 50 μl reactions were performed in 20 mM HEPES, pH 7.5, 2 mM ATP, 10 mM MgCl2, 30 mM NaCl, 2% glycerol, 250 μM BSA, and 4% DMSO. Black polystyrene flat-bottom 384-well reaction plates were read using a Tecan Infinite F200 Pro plate reader, equipped with 485(20)/535(25) FP filters. For experiments used to determine IC50 values, RAD51 concentrations (typically 190-290 nM) were selected to generate FP signal of 50-80% maximum in the absence of any inhibitory compound. Reported IC50 values represent the mean result of at least three replicate wells, and reported errors connote standard deviation.

immortalized human cells = test: MMP-1-60 toxicity to immortalized human cells with or without pre-incubation in media; format: cell-based; conditions: 4 hours of pre-incubation with tissue culture media vs. no pre-incubation
Description: FIGS. 6A-6B: A. ssDNA binding activity of RAD51 in response to RAD51 antagonists. […] B. MMP-1-60 toxicity to immortalized human cells.
HEK293 cells were plated into 96-well tissue culture plates at a density of 300 cells per well in the presence or absence of 50 nM MMC (Ben Venue Laboratories) for 24 hours at 37° C., 5% CO2. Media was subsequently replaced with fresh media containing 0.5% DMSO plus a candidate compound for an additional 24 hours. Compounds were then removed, and cultures were allowed to grow to a 50-70% confluence. Average survival from at least three replicates was measured using CellGlo reagent (Promega) or via a previously described sulforhodamine B method (Jayathilaka et al., 2008).

HEK293 cells = test: Cell toxicity assay: sensitization to MMC; format: cell-based, human; conditions: 24 hours MMC, then 24 hours compound, 5-7 days drug-free
Description: Cells were then allowed to grow in drug-free media for an additional 5-7 days. Average survival for each condition is normalized to the MMC-free control of that condition.

reaction with glutathione [1]: reduced glutathione reactivity
DNA binding activity of RAD51 treated with compound prior to washing (human RAD51 protein [2]; 10 μM compound): significantly inactivated
time dependence of inhibitory activity on the DNA binding activity of RAD51 (human RAD51 protein [5]): time-dependent
Structure (SMILES): O=C1C(Cl)=C(N2CCOCC2)C(=O)N1c1ccc(Cl)c(Cl)c1 [RI-1, 1-(3,4-Dichlorophenyl)-3-chloro-4-morpholino-1H-pyrrole-2,5-dione, reference compound]
SSA efficiency ([3]; 20 μM): stimulation of SSA
HR repair efficiency ([4]; 20 μM): inhibition of HR

RAD51 inhibitory activity (ssDNA binding), relative (human RAD51 protein [5]; FIG. 6A): intermediate to RI-1 and RI-2
Structure (SMILES): COc1ccc(C2=C(SCCN(C)C)C(=O)N(c3ccc(Cl)c(Cl)c3)C2=O)cc1 [MMP-1-60, 1-(3,4-dichlorophenyl)-3-((2-(dimethylamino)ethyl)thio)-4-(4-methoxyphenyl)-1H-pyrrole-2,5-dione]
cell toxicity with vs. without pre-incubation (stability) (immortalized human cells): comparable cell toxicity

reaction with glutathione [1]: no reactivity toward glutathione
IC50 (human RAD51 protein [5]; RAD51 binding to ssDNA, FP, read-out: IC50 in the standard DNA binding assay): 44.2 µM
time dependence of inhibitory activity on the DNA binding activity of RAD51 (human RAD51 protein [5]): no time-dependent increase
Structure (SMILES): COc1ccc(C2=C(N3CCOCC3)C(=O)N(c3ccc(Cl)c(Cl)c3)C2=O)cc1 [RI-2, 1-(3,4-Dichloro-phenyl)-3-(4-methoxy-phenyl)-4-morpholin-4-yl-pyrrole-2,5-dione]
DNA binding activity of RAD51 treated with compound prior to washing (human RAD51 protein [2]; concentrations up to 240 μM): no measurable loss of DNA binding activity
sensitization to cross-linking chemotherapy (MMC) (HEK293 cells): sensitizes human cells to cross-linking chemotherapy
SSA efficiency ([3]; 60 μM): very similar effects; also recorded: stimulation of SSA
HR repair efficiency ([4]; 60 μM): very similar effects; also recorded: inhibition of HR

Structure (SMILES): O=C1C(I)=C(N2CCOCC2)C(=O)N1c1ccc(Cl)c(Cl)c1 [Compound 9b, 1-(3,4-Dichlorophenyl)-3-iodo-4-morpholino-1H-pyrrole-2,5-dione]
reaction with glutathione [1]: no detectable compound at the first time point measured
